{"source": "paper PMC11784839", "about": "“Monoaminergic neurotransmitters are bimodal effectors of tau aggregation” (Science Advances, 2025)", "molecular_target": "tau (Homo sapiens, UniProt P10636)", "sequence (P10636 623-695 limits assumed)": "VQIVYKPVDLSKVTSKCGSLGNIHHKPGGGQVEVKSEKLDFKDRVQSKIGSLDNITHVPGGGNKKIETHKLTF", "assay": "MCE Phenols Library screening, tau biosensor cell seeding assay (AvZ)", "format": "cell-based", "conditions": "for AvZ (average z score of seeding, SDs from the mean level of seeding): 10 μM phenol in cell cultures, AD brain homogenate preincubated 16 hours, two biological replicates, positive = catalyzes seeding, negative = inhibits; for Z repl 1 / Z Repl 2: Z score; for Z repl 1 / raw data 1: replicate 1; for Z Repl 2 / raw data 2: replicate 2", "key": {"[1]": {"conditions": "average puncta of the two replicates"}, "[2]": {"conditions": "average Z score of the two replicates, MCE Phenols Library screen"}, "[3]": {"conditions": "average Z score of the two replicates, tau seeding"}, "[4]": {"conditions": "average Z score of the two replicates, tau biosensor seeding, MCE Phenols Library screen"}}, "data": [{"smiles": "OCC(O)c1ccc(O)c(O)c1", "note": "(stereo not shown) [4-(1,2-Dihydroxyethyl)benzene-1,2-diol]", "values": [{"measurement": "AvZ (average z score of seeding, SDs from the mean level of seeding)", "result": -0.242}, {"measurement": "Z repl 1", "result": -0.442}, {"measurement": "Z Repl 2", "result": -0.042}, {"measurement": "av puncta", "setting": "[1]", "result": 16682.4}, {"measurement": "raw data 1", "setting": "raw puncta", "result": 21044.7}, {"measurement": "raw data 2", "setting": "raw puncta", "result": 12320.1}]}, {"smiles": "Oc1cc(O)c2ccc(-c3ccc(O)c(O)c3)[o+]c2c1.[Cl-]", "note": "[Luteolinidin (chloride)]", "values": [{"measurement": "Z repl 1", "result": -0.952}, {"measurement": "Z Repl 2", "result": -1.154}, {"measurement": "av Z", "setting": "[2]", "result": -1.053}, {"measurement": "av puncta", "setting": "average of raw data 1 and 2", "result": 7678.85}, {"measurement": "raw data 1", "setting": "puncta", "result": 14921.6}, {"measurement": "raw data 2", "setting": "puncta", "result": 436.094}]}, {"smiles": "O=C(O)Cc1cccc(O)c1", "note": "[3-Hydroxyphenylacetic acid]", "values": [{"measurement": "AvZ (average z score of seeding, SDs from the mean level of seeding)", "result": -0.027}, {"measurement": "Z repl 1", "result": 0.164}, {"measurement": "Z Repl 2", "result": -0.218}, {"measurement": "av puncta", "setting": "average of raw data 1 and 2", "result": 19376.5}, {"measurement": "raw data 1", "setting": "puncta", "result": 28313.1}, {"measurement": "raw data 2", "setting": "puncta", "result": 10440}]}, {"smiles": "CC(C)=CCC/C(C)=C/Cc1c(O)c(CC=C(C)C)c2c(c1O)C(=O)C1=C[C@@H]3C[C@H]4C(C)(C)O[C@@](C/C=C(/C)C(=O)O)(C3=O)[C@@]14O2", "note": "[Gambogenic acid]", "values": [{"measurement": "av Z", "setting": "[2]", "result": -1.587}]}, {"smiles": "CC(C)=CCc1c(-c2ccc(O)cc2O)oc2c([C@H]3C=C(C)C[C@@H](c4ccc(O)cc4O)[C@@H]3C(=O)c3ccc(O)cc3O)c(O)cc(O)c2c1=O", "note": "[Kuwanon G]", "values": [{"measurement": "Z repl 1", "result": 0.063}, {"measurement": "Z Repl 2", "result": 0.629}, {"measurement": "av Z", "setting": "[3]", "result": 0.346}, {"measurement": "av puncta", "setting": "average of raw data 1 and 2", "result": 23290.6}, {"measurement": "raw data 1", "setting": "puncta", "result": 27102.4}, {"measurement": "raw data 2", "setting": "puncta", "result": 19478.8}]}, {"smiles": "Cc1cc(O)c(C)c2c1O[C@](C)(CCC[C@H](C)CCC[C@H](C)CCCC(C)C)CC2", "note": "[?-Tocopherol]", "values": [{"measurement": "Z repl 1", "result": 0.056}, {"measurement": "Z Repl 2", "result": -0.786}, {"measurement": "av Z", "setting": "[2]", "result": -0.365}, {"measurement": "av puncta", "setting": "[1]", "result": 15701}, {"measurement": "raw data 1", "setting": "raw puncta", "result": 27026}, {"measurement": "raw data 2", "setting": "raw puncta", "result": 4376.13}]}, {"smiles": "CCCCCC/C=C\\CCCCCCCCCc1cccc(O)c1C(=O)O", "note": "[Ginkgolic acid C17:1]", "values": [{"measurement": "AvZ (average z score of seeding, SDs from the mean level of seeding)", "result": 0.292}, {"measurement": "Z repl 1", "result": 0.386}, {"measurement": "Z Repl 2", "result": 0.198}, {"measurement": "av puncta", "setting": "average of raw data 1 and 2", "result": 22931}, {"measurement": "raw data 1", "setting": "puncta", "result": 30979.1}, {"measurement": "raw data 2", "setting": "puncta", "result": 14882.8}]}, {"smiles": "O=c1c(O[C@@H]2O[C@@H](CO)[C@H](O)[C@H]2O)c(-c2ccc(O)c(O)c2)oc2cc(O)cc(O)c12", "note": "[Avicularin]", "values": [{"measurement": "Z repl 1", "result": 1.115}, {"measurement": "Z Repl 2", "result": 1.158}, {"measurement": "av Z", "setting": "[4]", "result": 1.136}, {"measurement": "av puncta", "setting": "average of raw data 1 and 2", "result": 32432}, {"measurement": "raw data 1", "setting": "puncta", "result": 39734.3}, {"measurement": "raw data 2", "setting": "puncta", "result": 25129.7}]}, {"smiles": "COc1cc(-c2cc(=O)c3c(O)cc(O)cc3o2)ccc1O", "note": "[Chrysoeriol]", "values": [{"measurement": "Z repl 1", "result": 0.623}, {"measurement": "Z Repl 2", "result": -0.203}, {"measurement": "av Z", "setting": "[3]", "result": 0.21}, {"measurement": "av puncta", "setting": "average of raw data 1 and 2", "result": 22210.2}, {"measurement": "raw data 1", "setting": "puncta", "result": 33824.2}, {"measurement": "raw data 2", "setting": "puncta", "result": 10596.2}]}, {"smiles": "OCCc1ccc(O)cc1", "note": "[Tyrosol]", "values": [{"measurement": "AvZ (average z score of seeding, SDs from the mean level of seeding)", "result": 0.05}, {"measurement": "Z repl 1", "result": -0.193}, {"measurement": "Z Repl 2", "result": 0.294}, {"measurement": "av puncta", "setting": "average of raw data 1 and 2", "result": 19965.6}, {"measurement": "raw data 1", "setting": "puncta", "result": 24027}, {"measurement": "raw data 2", "setting": "puncta", "result": 15904.1}]}, {"smiles": "COc1cc(CCO[C@@H]2O[C@H](CO[C@@H]3O[C@H](CO)[C@@H](O)[C@H](O)[C@H]3O)[C@@H](OC(=O)/C=C/c3ccc(O)c(O)c3)[C@H](O[C@@H]3O[C@@H](C)[C@H](O)[C@@H](O)[C@H]3O)[C@H]2O)ccc1O", "note": "[Cistanoside A]", "values": [{"measurement": "Z repl 1", "result": -0.369}, {"measurement": "Z Repl 2", "result": -0.502}, {"measurement": "av Z", "setting": "[2]", "result": -0.435}, {"measurement": "av puncta", "setting": "[1]", "result": 14662.2}, {"measurement": "raw data 1", "setting": "raw puncta", "result": 21923.2}, {"measurement": "raw data 2", "setting": "raw puncta", "result": 7401.19}]}, {"smiles": "COc1ccc(-c2coc3cc(O)ccc3c2=O)cc1O", "note": "[Calycosin]", "values": [{"measurement": "Z repl 1", "result": 0.387}, {"measurement": "Z Repl 2", "result": -0.53}, {"measurement": "av Z", "setting": "average Z score of two replicates, Phenols Library screen", "result": -0.072}, {"measurement": "av puncta", "setting": "average of raw data 1 and 2", "result": 19046}, {"measurement": "raw data 1", "setting": "puncta", "result": 30989.7}, {"measurement": "raw data 2", "setting": "puncta", "result": 7102.22}]}, {"smiles": "COC(=O)c1c2c(c3ccccc3c1O)OC(C)(C)C=C2", "note": "[Mollugin]", "values": [{"measurement": "Z repl 1", "result": 0.972}, {"measurement": "Z Repl 2", "result": 0.582}, {"measurement": "av Z", "setting": "[4]", "result": 0.777}, {"measurement": "av puncta", "setting": "average of raw data 1 and 2", "result": 28499.6}, {"measurement": "raw data 1", "setting": "puncta", "result": 38015.5}, {"measurement": "raw data 2", "setting": "puncta", "result": 18983.8}]}]}
